Test results published in PMC11096368, “Transcriptomic signature, bioactivity and safety of a non-hepatotoxic analgesic generating AM404 in the midbrain PAG region” (Scientific Reports, 2024).
Where two headings read alike, the source gives them in different places.

Test system: CD1 or C57BL/6 mice
Test: Cold stimulation tail flick somatic pain assay
Type: in vivo
Details: for ED50: Mus musculus, equimolar dosing; for Analgesia in cold tail-flick assay: high dose (100 mg/kg), all experimental cohorts
Description: The investigators were blinded till the completion of all the experiments. To ensure objectivity, investigators were blinded for the acetic acid and tail flick experiments. In the CFA/von Frey and Hargreaves assays, one investigator did the drug pre-treatments, and another investigator at another location who was not aware of the treatments conducted the behavioral testing. Moreover, these studies used the eVF device that electronically registers the grams of force necessary to elicit paw withdrawal, eliminating bias that confounded older versions of this test in which an investigator used a series of individual von Frey microfilaments to determine paw withdrawal thresholds. Six separate experimenters were involved in the data acquisition for behavioral testing, and another separate investigator performed all the statistical analyses using GraphPad Prism Version 9.1.2. Statistical significance was determined by p < 0.05; one-way ANOVA followed by Sidak’s multiple comparisons post hoc test. Mixed-gender experiments were powered to test for gender effects, and different ages of rodents were also included for the experiments – young (2 months) and aged (20 months) to tease out whether there are any effects of age-related changes in nociceptive sensitivity under naïve, and inflammatory pre-clinical rodent pain models. For the aged rats and mice, we could only obtain male Sprague–Dawley rats and male C57BL/6 mice of 20 months old from all commercial animal vendors and from the National Institute of Aging (NIA). So, only these rodents were used for the older animal experimental cohort. Old female rats and mice were not available at the time when these experiments were conducted. For ED50 calculation, dose–response curves were calculated with regression analysis and log transformation using GraphPad Prism 9.1.2.
Half of the tail was immersed in ice-cold water maintained at 4 °C. For the tail-flick assays, we used n = 70 aged male mice, n = 90 young male mice, and n = 120 young female mice. Based on the availability of mice at the time of the experiments, different numbers of animals were assigned to different cohorts of experimental animals. Tail flick assay experiments were conducted on an open bench in a dedicated room at the LSUHSC New Orleans Neuroscience Center of Excellence vivarium. Mice were allowed to acclimate to the laboratory environment for 1 h prior to testing. To restrain the mice for the test, disposable plastic 50 mL screw-capped conical centrifuge tubes were cut at the tip to create a 0.5 cm opening to allow the mice to breathe freely. Another 0.5 cm opening was cut into the cap to allow access of the tail to the water bath. A 500 mL glass beaker was filled with 450 mL of ice-cold distilled water maintained at 4 °C with the addition of ice and determined with a glass thermometer. Mice were held over the opening of the water bath, and their tails submerged approximately halfway into the water. The nociceptive threshold was taken as the latency until the mice flicked their tail tip or removed the tail. The time from immersion to the attempted tail tip removal was measured to 1/10th of a sec with a digital laboratory timer. To minimize damage to the tail, a 60-s cut-off was utilized. […] Injections were at doses of 32 mg/kg and 100 mg/kg. 30 min post-drug administration tail-flick/withdrawal latency was measured.

[1] = read-out: ED50 Tail Flick Assay (Mice), Aged (Male)
[2] = read-out: ED50 Tail Flick Assay (Mice), Young (Female)
[3] = read-out: ED50 Tail Flick Assay (Mice), Young (Male)

| Structure (SMILES) | ED50 [1] [µmol/kg] | ED50 [2] [µmol/kg] | ED50 [3] [µmol/kg] | Analgesia in cold tail-flick assay |
| --- | --- | --- | --- | --- |
| CC(=O)Nc1ccc(O)cc1 [ApAP, acetaminophen, reference compound] | 281 | 70.3 | 71.8 | significant analgesia |
| CCN(CC)C(=O)c1ccccc1S(=O)(=O)NCC(=O)Nc1ccc(O)cc1 [SRP-001, N,N-diethyl-2-[[2-(4-hydroxyanilino)-2-oxo-ethyl]sulfamoyl]benzamide] | 81.6 | 44.9 | 60 | significant analgesia |
